Laboratory results taken from patent publication US20050255111A1, “Use of an inhibitor or antagonist against tissue factor” (priority 2002, published 2005).

Legend:
[1] = tested on: TF; experiment: TF synthesis and secretion in cultured human islets (TF content by EIA); assay type: cell-based
Method: Islets were cultured for 24 h in CMRL-medium containing […] Nicotinamide, which is the standard medium used for islet culture. The medium was thereafter exchanged to CMRL-medium without Nicotinamid. After a baseline period of another 24 h, islets were handpicked for analysis of TF content. Culture was continued for 48 h with medium containing agents known to affect TF expression in monocytes and endothelial cells. These were, L-Arginin, Cyclosporin A, Enalapril, acetylcysteine and nicotinamid. The islets were harvested, the TF content analysed using a commercial EIA kit and the islets tested in the in vitro loop model.
Islets were cultured for 48 h in medium containing 0, 10, 25 and 50 mM Nicotinamid and the intracellular TF concentration assessed, see FIG. 6. The islets were also exposed to fresh human ABO compatible blood in the in vitro loop model. Samples were retrieved after 5, 15, 30 and 60 min and analysed for TAT, see FIG. 7.
Islets were cultured for 48 h in medium containing Enalapril (40 μg/ml), Cyclosporin A (10 μmol/L), L-Aginine (1 mmol/L), Nicotinamide (10 mmol/L) and the intracellular TF concentration assessed. The concentration of Tf is expressed as percentage of the untreated control, see FIG. 8.

[2] = tested on: IBMIR; experiment: IBMIR in vitro

With NC(=O)c1cccnc1 [nicotinamide] the “production of tissue factor in the islets (TF content)” value ([1]; nicotinamide 0 to 50 mM, 48 h culture) was “dose-dependently inhibited” and the “secretion of TF” value ([1]; nicotinamide, dose dependent) was “inhibited”.

With N=C(N)c1ccc(CNC(=O)[C@@H]2CCN2C(=O)[C@H](NCC(=O)O)C2CCCCC2)cc1 [Melagatran] the IBMIR in vitro [2] was “abrogated”.
